Measurements as given in publication PMC6078345, “Location and functions of Inebriated in the Drosophila eye” (Biology Open, 2018).

Molecular target: T1, Ine-P1 (Inebriated long isoform; Ine-P1::GFP, Ine-P1-EGFP) (Drosophila melanogaster, UniProt Q9VR07)
T1 construct: full-length long isoform, GFP/EGFP fusion, cRNA in Xenopus laevis oocytes; 943 aa
T1 sequence (Q9VR07 1-943): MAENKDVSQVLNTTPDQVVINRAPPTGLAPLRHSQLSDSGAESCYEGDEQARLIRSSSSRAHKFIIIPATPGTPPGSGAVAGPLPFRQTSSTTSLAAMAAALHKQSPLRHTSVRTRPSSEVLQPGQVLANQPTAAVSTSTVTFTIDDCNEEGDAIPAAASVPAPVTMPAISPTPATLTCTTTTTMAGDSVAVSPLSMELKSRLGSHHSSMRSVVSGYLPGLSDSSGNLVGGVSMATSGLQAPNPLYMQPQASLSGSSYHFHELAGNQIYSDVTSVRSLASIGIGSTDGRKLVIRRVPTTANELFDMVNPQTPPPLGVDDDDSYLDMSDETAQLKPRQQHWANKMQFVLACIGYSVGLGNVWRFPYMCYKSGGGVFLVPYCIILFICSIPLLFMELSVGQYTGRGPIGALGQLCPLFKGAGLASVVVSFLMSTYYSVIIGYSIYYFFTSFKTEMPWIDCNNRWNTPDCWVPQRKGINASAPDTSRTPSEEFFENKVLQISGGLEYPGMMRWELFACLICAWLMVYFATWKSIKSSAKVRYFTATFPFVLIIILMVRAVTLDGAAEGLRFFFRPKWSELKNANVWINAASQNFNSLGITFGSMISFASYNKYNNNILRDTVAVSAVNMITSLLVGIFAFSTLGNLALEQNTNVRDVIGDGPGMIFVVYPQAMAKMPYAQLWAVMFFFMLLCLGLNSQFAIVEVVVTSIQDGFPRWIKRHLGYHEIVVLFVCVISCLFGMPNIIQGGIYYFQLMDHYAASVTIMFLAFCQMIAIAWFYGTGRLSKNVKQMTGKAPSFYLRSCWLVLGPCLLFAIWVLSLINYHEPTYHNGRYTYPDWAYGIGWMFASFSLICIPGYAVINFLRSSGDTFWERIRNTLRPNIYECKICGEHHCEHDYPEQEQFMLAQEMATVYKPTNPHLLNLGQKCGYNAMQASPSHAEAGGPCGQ
Assay: voltage-clamp current in Xenopus oocytes
Assay type: cell-based
Details: normal frog Ringer, -100 mV; dose-dependent current, 7 to 100 mM; few oocytes; transport only suggested

Compound: NCC(=O)O [glycine]
- voltage-clamp current in Xenopus oocytes: glycine on Ine-P1-EGFP transfected oocytes revealed an obvious dose-dependent signal
